From ChEMBL document CHEMBL5724806, “Unraveling interindividual differences and functional consequences of gut microbial metabolism of immunosuppressants” (2024)

Assays:
Assay type in all cases: ADME
[1] = (§1) The drug is tested on the gut metagenome community of T-04 with ENA study accession number: PRJEB31790 for biotransformation under microaerobic condition. The drug concentrations were measured over 7 timepoints collected between 0 and 12 hours of incubation by liquid-chromatography-coupled mass spectrometry (LC–MS); parameters: dose 5 uM, timepoint 0, 0.75, 1.5, 3, 6, 9, 12 hours; settings: 5 µM
[2] = as §1, with “A-02” for “T-04”, “anaerobic” for “microaerobic”; parameters: dose 5 uM, timepoint 0, 0.75, 1.5, 3, 6, 9, 12 hours; settings: 5 µM
[3] = as §1, with “A-06” for “T-04”, “anaerobic” for “microaerobic”; parameters: dose 5 uM, timepoint 0, 0.75, 1.5, 3, 6, 9, 12 hours; settings: 5 µM
[4] = The drug is tested on Lactobacillus gasseri strain: DSM20243 for biotransformation under anaerobic condition. The drug concentrations were measured over 6 timepoints collected between 0 and 12 hours of incubation by liquid-chromatography-coupled mass spectrometry (LC–MS); parameters: dose 5 uM, timepoint 0, 1.5, 3, 6, 9, 12 hours; settings: 5 µM
[5] = The drug is tested on Lactobacillus paracasei strain: ATCC27092 for biotransformation under microaerobic condition. The drug concentrations were measured over 6 timepoints collected between 0 and 12 hours of incubation by liquid-chromatography-coupled mass spectrometry (LC–MS); parameters: dose 5 uM, timepoint 0, 1.5, 3, 6, 9, 12 hours; settings: lacticaseibacillus paracasei, 5 µM
[6] = as §1, with “A-03” for “T-04”; parameters: dose 5 uM, timepoint 0, 0.75, 1.5, 3, 6, 9, 12 hours; settings: 5 µM
[7] = The drug is tested on Bacteroides caccae strain: DSM19024 for biotransformation under anaerobic condition. The drug concentrations were measured over 6 timepoints collected between 0 and 12 hours of incubation by liquid-chromatography-coupled mass spectrometry (LC–MS); parameters: dose 5 uM, timepoint 0, 1.5, 3, 6, 9, 12 hours; settings: 5 µM
[8] = The drug is tested on Lactobacillus paracasei strain: ATCC27092 for biotransformation under anaerobic condition. The drug concentrations were measured over 6 timepoints collected between 0 and 12 hours of incubation by liquid-chromatography-coupled mass spectrometry (LC–MS); parameters: dose 5 uM, timepoint 0, 1.5, 3, 6, 9, 12 hours; settings: lacticaseibacillus paracasei, 5 µM
[9] = The drug is tested on Eubacterium rectale strain: DSM17629 for biotransformation under anaerobic condition. The drug concentrations were measured over 6 timepoints collected between 0 and 12 hours of incubation by liquid-chromatography-coupled mass spectrometry (LC–MS); parameters: dose 5 uM, timepoint 0, 1.5, 3, 6, 9, 12 hours; settings: agathobacter rectalis, 5 µM
[10] = as §1, with “A-09” for “T-04”; parameters: dose 5 uM, timepoint 0, 0.75, 1.5, 3, 6, 9, 12 hours; settings: 5 µM
[11] = as §1, with “P-02” for “T-04”, “anaerobic” for “microaerobic”; parameters: dose 5 uM, timepoint 0, 0.75, 1.5, 3, 6, 9, 12 hours; settings: 5 µM
[12] = The drug is tested on Actinomyces graevenitzii strain: DSM15540 for biotransformation under microaerobic condition. The drug concentrations were measured over 6 timepoints collected between 0 and 12 hours of incubation by liquid-chromatography-coupled mass spectrometry (LC–MS); parameters: dose 5 uM, timepoint 0, 1.5, 3, 6, 9, 12 hours; settings: 5 µM
[13] = The drug is tested on Bifidobacterium longum strain: DSM20088 for biotransformation under anaerobic condition. The drug concentrations were measured over 6 timepoints collected between 0 and 12 hours of incubation by liquid-chromatography-coupled mass spectrometry (LC–MS); parameters: dose 5 uM, timepoint 0, 1.5, 3, 6, 9, 12 hours; settings: 5 µM
[14] = as §1, with “P-02” for “T-04”; parameters: dose 5 uM, timepoint 0, 0.75, 1.5, 3, 6, 9, 12 hours; settings: 5 µM
[15] = as §1, with “A-02” for “T-04”; parameters: dose 5 uM, timepoint 0, 0.75, 1.5, 3, 6, 9, 12 hours; settings: 5 µM
[16] = The drug is tested on Dorea formicigenerans strain: DSM3992 for biotransformation under anaerobic condition. The drug concentrations were measured over 6 timepoints collected between 0 and 12 hours of incubation by liquid-chromatography-coupled mass spectrometry (LC–MS); parameters: dose 5 uM, timepoint 0, 1.5, 3, 6, 9, 12 hours; settings: 5 µM
[17] = The drug is tested on Streptococcus sanguinis strain: DSM20567 for biotransformation under anaerobic condition. The drug concentrations were measured over 6 timepoints collected between 0 and 12 hours of incubation by liquid-chromatography-coupled mass spectrometry (LC–MS); parameters: dose 5 uM, timepoint 0, 1.5, 3, 6, 9, 12 hours; settings: 5 µM
[18] = as §1, with “T-05” for “T-04”; parameters: dose 5 uM, timepoint 0, 0.75, 1.5, 3, 6, 9, 12 hours; settings: 5 µM
[19] = The drug is tested on Collinsella aerofaciens strain: DSM3979 for biotransformation under anaerobic condition. The drug concentrations were measured over 6 timepoints collected between 0 and 12 hours of incubation by liquid-chromatography-coupled mass spectrometry (LC–MS); parameters: dose 5 uM, timepoint 0, 1.5, 3, 6, 9, 12 hours; settings: 5 µM
[20] = The drug is tested on Bacteroides fragilis strain: DSM2151 for biotransformation under anaerobic condition. The drug concentrations were measured over 6 timepoints collected between 0 and 12 hours of incubation by liquid-chromatography-coupled mass spectrometry (LC–MS); parameters: dose 5 uM, timepoint 0, 1.5, 3, 6, 9, 12 hours; settings: 5 µM
[21] = as §1, with “anaerobic” for “microaerobic”; parameters: dose 5 uM, timepoint 0, 0.75, 1.5, 3, 6, 9, 12 hours; settings: 5 µM
[22] = The drug is tested on Gemella haemolysans strain: DSM107751 for biotransformation under microaerobic condition. The drug concentrations were measured over 6 timepoints collected between 0 and 12 hours of incubation by liquid-chromatography-coupled mass spectrometry (LC–MS); parameters: dose 5 uM, timepoint 0, 1.5, 3, 6, 9, 12 hours; settings: 5 µM
[23] = as §1, with “A-08” for “T-04”, “anaerobic” for “microaerobic”; parameters: dose 5 uM, timepoint 0, 0.75, 1.5, 3, 6, 9, 12 hours; settings: 5 µM
[24] = The drug is tested on Bacteroides vulgatus strain: DSM1447 for biotransformation under anaerobic condition. The drug concentrations were measured over 6 timepoints collected between 0 and 12 hours of incubation by liquid-chromatography-coupled mass spectrometry (LC–MS); parameters: dose 5 uM, timepoint 0, 1.5, 3, 6, 9, 12 hours; settings: phocaeicola vulgatus, 5 µM
[25] = The drug is tested on Lactobacillus fermentum strain: DSM20052 for biotransformation under anaerobic condition. The drug concentrations were measured over 6 timepoints collected between 0 and 12 hours of incubation by liquid-chromatography-coupled mass spectrometry (LC–MS); parameters: dose 5 uM, timepoint 0, 1.5, 3, 6, 9, 12 hours; settings: limosilactobacillus fermentum, 5 µM
[26] = The drug is tested on Clostridium scindens strain: DSM5676 for biotransformation under anaerobic condition. The drug concentrations were measured over 6 timepoints collected between 0 and 12 hours of incubation by liquid-chromatography-coupled mass spectrometry (LC–MS); parameters: dose 5 uM, timepoint 0, 1.5, 3, 6, 9, 12 hours; settings: 5 µM
[27] = The drug is tested on Bacteroides uniformis strain: DSM6597 for biotransformation under anaerobic condition. The drug concentrations were measured over 6 timepoints collected between 0 and 12 hours of incubation by liquid-chromatography-coupled mass spectrometry (LC–MS); parameters: dose 5 uM, timepoint 0, 1.5, 3, 6, 9, 12 hours; settings: 5 µM
[28] = as §1, with “P-03” for “T-04”, “anaerobic” for “microaerobic”; parameters: dose 5 uM, timepoint 0, 0.75, 1.5, 3, 6, 9, 12 hours; settings: 5 µM
[29] = The drug is tested on Blautia hansenii strain: DSM20583 for biotransformation under anaerobic condition. The drug concentrations were measured over 6 timepoints collected between 0 and 12 hours of incubation by liquid-chromatography-coupled mass spectrometry (LC–MS); parameters: dose 5 uM, timepoint 0, 1.5, 3, 6, 9, 12 hours; settings: 5 µM
[30] = as §1, with “T-05” for “T-04”, “anaerobic” for “microaerobic”; parameters: dose 5 uM, timepoint 0, 0.75, 1.5, 3, 6, 9, 12 hours; settings: 5 µM

Bacterial Biotransformation [1] | Bacterial Biotransformation [2] | Bacterial Biotransformation [3] | Bacterial Biotransformation [4] | Bacterial Biotransformation [5] | Bacterial Biotransformation [6] | Bacterial Biotransformation [7] | Bacterial Biotransformation [8] | Bacterial Biotransformation [9] | Bacterial Biotransformation [10] | Bacterial Biotransformation [11] | Bacterial Biotransformation [12] | Bacterial Biotransformation [13] | Bacterial Biotransformation [14] | Bacterial Biotransformation [15] | Bacterial Biotransformation [16] | Bacterial Biotransformation [17] | Bacterial Biotransformation [18] | Bacterial Biotransformation [19] | Bacterial Biotransformation [20] | Compound | further results
Compound NOT metabolized | Compound metabolized | Compound metabolized | Compound NOT metabolized | Compound NOT metabolized | Compound NOT metabolized | Compound NOT metabolized | Compound NOT metabolized | Compound NOT metabolized | Compound metabolized | Compound metabolized | Compound NOT metabolized | Compound NOT metabolized | Compound NOT metabolized | Compound metabolized | Compound NOT metabolized | Compound NOT metabolized | Compound NOT metabolized | Compound NOT metabolized | Compound NOT metabolized | CNC(=C[N+](=O)[O-])NCCSCc1ccc(CN(C)C)o1 [RANITIDINE] | Bacterial Biotransformation [21]: Compound NOT metabolized; Bacterial Biotransformation [22]: Compound NOT metabolized; Bacterial Biotransformation [23]: Compound NOT metabolized; Bacterial Biotransformation [24]: Compound NOT metabolized; Bacterial Biotransformation [25]: Compound NOT metabolized; Bacterial Biotransformation [26]: Compound NOT metabolized; Bacterial Biotransformation [27]: Compound NOT metabolized; Bacterial Biotransformation [28]: Compound metabolized; Bacterial Biotransformation [29]: Compound NOT metabolized; Bacterial Biotransformation [30]: Compound NOT metabolized
Compound NOT metabolized | Compound NOT metabolized | Compound NOT metabolized | Compound NOT metabolized | Compound NOT metabolized | Compound NOT metabolized | Compound NOT metabolized | Compound NOT metabolized | Compound NOT metabolized | Compound NOT metabolized | Compound NOT metabolized | Compound NOT metabolized | Compound NOT metabolized | Compound NOT metabolized | Compound NOT metabolized | Compound NOT metabolized | Compound NOT metabolized | Compound NOT metabolized | Compound NOT metabolized | Compound NOT metabolized | CC(C)NCC(O)COc1ccc(CC(N)=O)cc1 (stereo not given) [ATENOLOL] | Bacterial Biotransformation [21]: Compound NOT metabolized; Bacterial Biotransformation [22]: Compound NOT metabolized; Bacterial Biotransformation [23]: Compound NOT metabolized; Bacterial Biotransformation [24]: Compound NOT metabolized; Bacterial Biotransformation [25]: Compound NOT metabolized; Bacterial Biotransformation [26]: Compound NOT metabolized; Bacterial Biotransformation [27]: Compound NOT metabolized; Bacterial Biotransformation [28]: Compound NOT metabolized; Bacterial Biotransformation [29]: Compound NOT metabolized; Bacterial Biotransformation [30]: Compound NOT metabolized
Compound NOT metabolized | Compound metabolized | Compound metabolized | Compound NOT metabolized | Compound NOT metabolized | Compound metabolized | Compound NOT metabolized | Compound NOT metabolized | Compound NOT metabolized | Compound metabolized | Compound metabolized | Compound NOT metabolized | Compound NOT metabolized | Compound metabolized | Compound metabolized | Compound NOT metabolized | Compound NOT metabolized | Compound metabolized | Compound NOT metabolized | Compound NOT metabolized | COc1ccc([C@@H]2Sc3ccccc3N(CCN(C)C)C(=O)[C@@H]2OC(C)=O)cc1 [DILTIAZEM] | Bacterial Biotransformation [21]: Compound NOT metabolized; Bacterial Biotransformation [22]: Compound NOT metabolized; Bacterial Biotransformation [23]: Compound metabolized; Bacterial Biotransformation [24]: Compound NOT metabolized; Bacterial Biotransformation [25]: Compound NOT metabolized; Bacterial Biotransformation [26]: Compound NOT metabolized; Bacterial Biotransformation [27]: Compound metabolized; Bacterial Biotransformation [28]: Compound metabolized; Bacterial Biotransformation [29]: Compound NOT metabolized; Bacterial Biotransformation [30]: Compound NOT metabolized
